Laboratory results reported in article PMC7503981, “Plant Nitrilase Homologues in Fungi: Phylogenetic and Functional Analysis with Focus on Nitrilases in Trametes versicolor and Agaricus bisporus” (Molecules, 2020).

What was measured:
[1] = tested on: T1, NitAb; assay: spectrophotometric ammonia assay; […] substrate; format: biochemical, Agaricus bisporus; conditions: NLase (Asp + ammonia forming) activity; no asparaginase added for NLase activity; 50 mM Tris/HCl, 150 mM NaCl, pH 8.0, 30 °C; read-out: Substrate β-CA / Vmax [U mg^-1 rotein)] KM (mM) / NLase Activity ^2
T1 construct: catalytic tetrad E45, K157, E164, C195

[2] = target: T2, NitTv1 (Trametes versicolor, UniProt P9WEU6); assay: spectrophotometric ammonia assay; […] substrate; format: biochemical; conditions: read-out: Substrate β-CA / Vmax [U mg^-1 rotein)] KM (mM) / NLase Activity ^2; NLase (Asp + ammonia forming) activity; no asparaginase added for NLase activity; 50 mM Tris/HCl, 150 mM NaCl, pH 8.0, 30 °C
T2 construct: gene nit; catalytic tetrad E46, K133, E140, C178
T2 sequence (P9WEU6 whole entry): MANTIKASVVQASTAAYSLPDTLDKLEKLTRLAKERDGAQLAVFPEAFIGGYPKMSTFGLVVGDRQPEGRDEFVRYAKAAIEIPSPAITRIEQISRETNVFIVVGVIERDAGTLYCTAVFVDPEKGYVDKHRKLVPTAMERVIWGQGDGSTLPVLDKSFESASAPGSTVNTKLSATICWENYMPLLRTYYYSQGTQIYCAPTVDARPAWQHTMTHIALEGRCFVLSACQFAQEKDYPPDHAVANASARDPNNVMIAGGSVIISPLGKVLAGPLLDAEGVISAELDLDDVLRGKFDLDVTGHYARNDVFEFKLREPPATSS

Compound `N#CC[C@H](N)C(=O)O` [β-CA, β-cyano-L-alanine] has a Km [1] of 7.38 ± 1.4 mM and a Km [2] of 7.72 ± 1.82 mM.
